Test results taken from paper PMC6986439, “Sultiame pharmacokinetic profile in plasma and erythrocytes after single oral doses: A pilot study in healthy volunteers” (Pharmacology Research & Perspectives, 2020).
Several values for one entry are separate records, joined by “and”; a condition that tells them apart may be missing. Identical values can stand only once. Like-named read-outs stand apart in the source and are kept apart here.

Legend:
[1] = Population PK compartmental analysis (two-compartment model with saturable ligand to receptor binding); assay type: in vivo, human
Protocol: A population PK analysis was also performed using a nonlinear mixed‐effect modeling approach (NONMEM version 7.4, ICON Development Solutions, Hanover MD, USA). […] The model was expressed in terms of differential equations and first‐order rate constants of absorption (ka), elimination (ke), association with (kon) and dissociation from (koff) receptors, maximal binding capacity (Btot), apparent central volume of distribution (Vc/F), and erythrocytes’ volume of distribution (Very). Note that Very actually encompasses the volume of all types of cells containing receptors, assumed to tally with the sampled erythrocytes. Plasma protein binding was assumed constant over the whole range of observed concentrations. Renal extraction fraction (Qren) was added to characterize urine excretion with an additional compartment for urine data. Values of kon and koff characterized in vitro at different temperatures were used as initial estimates and the value of kon to 2018 µM^−1 h^−1 at 37°C fixed in the in vivo model. F was not evaluated, making the model estimate apparent values for Vc/F and CL/F. The first‐order elimination rate constant from the central compartment was calculated as ke = (CL/F)/(Vc/F). The first value below the LLOQ was equaled to LLOQ/2 and subsequent nonquantifiable values were discarded (M6 method).12 Details concerning differential equations and model building steps and adjustment are available in Supplemental material.
Figure 1 Compartmental model accounting for nonlinearity of distribution. Aa, amount of sultiame at the absorption site; Ap, amount of sultiame in plasma and central compartment; Vc, central volume of distribution; Aery, amount of sultiame in the cells, assumed to be bound to receptors; Very, cellular volume of distribution; ka, absorption rate constant; ke, elimination rate constant; kon, constant of association onto receptors binding sites; koff, constant of dissociation from the binding site; Bbound, amount of occupied receptors, assumed equal to Aery; Bfree, amount of free binding sites; Btot, sultiame maximal binding capacity (mg); Qren, renal fraction of the elimination rate; Foral, oral bioavailability, assumed equal to 1
A stepwise procedure was used to identify the model that best fitted the data, comparing two‐, three‐, and four‐compartmental models (peripheral or separate intracellular compartments for free and bound sultiame), and other nonlinear models (Bmax sigmoid model). Exponential errors were used for the description of between‐subject variability (BSV) of PK parameters. Proportional, additive, and mixed error models were compared to describe the residual variability. The stability and internal validity of the final model were assessed by means of standard procedures, detailed in Supplemental material. Covariates were not analyzed due to the limited number of subjects included.
Our population PK analysis used a non-linear mixed effect two-compartment model with first-order absorption incorporating a saturable ligand to receptor binding. We fitted it to our data with the NONMEM software (version 7.4, ICON Development Solutions, Hanover MD, USA), using the ADVAN13 subroutine.
Notice that Aery simultaneously expresses the amount of binding sites occupied by sultiame (Bbound). Thus, the amount of free binding sites corresponds to Bfree = (Btot – Aery), and the model only needs the parameter Btot to characterize the size of the saturable compartment associated to receptor binding (in mg of sultiame). The values of kon and koff characterized in vitro at 37°C were used in the in vivo model as initial estimates, and the kon was fixed to 2018 µM^-1· h^-1.
The model was fitted to the data using first order conditional estimation (FOCE) to obtain values for the eight model parameters listed above. […]

[2] = system: erythrocytes; experiment: In vitro spiking experiment: sultiame exchanges between plasma and erythrocytes; assay type: in vitro ADME, human
Protocol: A spiking experiment was performed to better characterize sultiame exchanges between plasma and erythrocytes. The influx into cells was investigated through spiking fresh human whole blood on EDTA at different target concentrations (1, 5, 10, 20, 40, and 80 mg/L) and different temperatures (4, 21, and 37°C), followed by sampling at 0, 2, 4, 6, 8, 10, 15, 30, 60, 120, and 180 min. The efflux was investigated through incubating whole blood for 1 h at 2 concentrations (10 and 40 mg/L) at 37°C, centrifugating and briefly washing the erythrocytes with NaCl 0.9%, and letting them equilibrate with fresh plasma while drawing samples at 0, 2, 4, 6, 8, 10, 15, 30, 60, 120, 180 minutes, and 24 hours.
In addition, competition studies were performed with two other antiepileptic agents known for their affinity for CA (zonisamide and topiramate), added at equimolar concentration to 20 mg/L of sultiame. Similar ranges of inhibition constants for CA II were reported in the literature for these three substances.13 Samples (1 mL) were drawn before and at 2, 4, 6, 8, 10, 15, 20, 30, 45, 60, and 120 min after addition of the competitor. Sultiame, zonisamide, and topiramate concentrations were then analyzed. All samples were centrifuged at 18 620 g for 1 minutes at 4°C. Plasma, erythrocyte, and urine fractions were stored separately at − 80°C prior to analysis for a maximum of 9 months. For analysis, plasma and hemolyzed erythrocytes samples were subjected to protein precipitation with MeOH containing the internal‐standard sultiame D4 and quantified with the previously described HPLC‐MS/MS method, using matrix‐matched calibration and quality controls. The sultiame concentrations determined in erythrocytes were corrected for the 10% interstitial plasma remnant in the erythrocyte fraction after centrifugation.14

[3] = population estimate of final model
[4] = 37 °C, deduced using Arrhenius' law

Work on NS(=O)(=O)c1ccc(N2CCCCS2(=O)=O)cc1 [Sultiame] yielded a Btot ([1]; bootstrap evaluation, median) of 111 mg, a QRen ([1]; bootstrap evaluation, median) of 28.8% and a Vc ([1]; bootstrap evaluation, median) of 64.8 L. For the same molecule, the Very ([1]; bootstrap evaluation, median) was 3.27 L, the ka ([1]; bootstrap evaluation, median) was 1.88 h⁻¹ and the koff ([1]; bootstrap evaluation, median) was 2.244 s⁻¹. The kon ([1]; bootstrap evaluation, median, fixed) was 560600 M⁻¹ s⁻¹, the Kd ([1]; final population model, read-out: estimated kD of final model (koff/kon)) was 4 µM and the Vd ([1]; male, human, erythrocytes, oral, population estimate of final model, read-out: Very, cell (erythrocyte compartment) volume of distribution) was 3.3 L. The Vd ([1]; male, human, plasma, oral, population estimate of final model, read-out: Vc, central volume of distribution) was 64.8 L, the clearance ([1]; male, human, plasma, oral, bootstrap evaluation, median of 2000 replicates, read-out: CLplasma (converted)) was 166 mL/min and the “kon, association constant” value ([1]; not estimated but fixed in the in vivo model to the in vitro value at 37°C) was 560600 M⁻¹ s⁻¹. For the same molecule, the “Btot, maximal binding capacity” value [1, 3] was 111 mg, the “QRen, fraction eliminated by renal route” value [1, 3] was 28.8% and the “Very, cell (erythrocyte compartment) volume of distribution” value [1, 3] was 3.27 L. The “ka, constant of absorption” value [1, 3] was 1.88 h⁻¹, the “koff, dissociation constant” value [1, 3] was 2.244 s⁻¹ and the “CLplasma, apparent plasma clearance (CL/F)” value ([1]; population estimate of final model, oral 50, 100, 200 mg) was 10.0 L/h and 9.95 L/h. It also gave a koff [2, 4] of 0.0486 s⁻¹, a kon [2, 4] of 560600 M⁻¹ s⁻¹ and an erythrocyte/plasma ratio ([2]; concentrations of 10 mg/L or less) of 800. The erythrocyte/plasma ratio ([2]; concentrations of 20 mg/L and above) was “less than 30”, the “efflux from incubated erythrocytes into blank plasma” value ([2]; erythrocytes incubated 1 h at 10 and 40 mg/L, 37°C, data not shown) was “only minute amounts” and the “in vitro binding capacity” value ([2]; in vitro evaluation) was “exceeding 20 mg per liter of whole blood”. The “whole blood concentration at which saturation of erythrocytes occurs” value ([2]; in vitro spiking) was about 20 mg/L and the “time to steady state of erythrocyte/plasma ratio” value ([2]; spiked fresh human whole blood) was “about 10 minutes”.
